From patent publication US11021481B2, “Substituted isoindolin-1-ones and 2,3-dihydro-1h-pyrrolo[3,4-c]pyridin-1-ones as HPK1 antagonists” (Nimbus Saturn, Inc., priority 2019, dated 2021)
Structures can show the parent of a compound that is named as a salt.

Target: HPK1 (Homo sapiens (Human), UniProt Q92918)
Test: HPK1 biochemical enzyme assay (microfluidic mobility shift assay)
Details: 1.5 nM HPK1, ATP 1 mM final, 30 min preincubation, 60 min at RT, Caliper EZ Reader; read-out: HPK1 1000UMATP caliper IC50
Outline: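 Ten-point compound titrations (top 3 μM final) preincubated 30 min with HPK1 and substrate, then reaction started with 1 mM ATP and 1 μM substrate, 5 mM MgCl2. After 60 min at RT, reaction terminated and product measured by microfluidic mobility shift.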

HPK1, sequence (Q92918 whole entry): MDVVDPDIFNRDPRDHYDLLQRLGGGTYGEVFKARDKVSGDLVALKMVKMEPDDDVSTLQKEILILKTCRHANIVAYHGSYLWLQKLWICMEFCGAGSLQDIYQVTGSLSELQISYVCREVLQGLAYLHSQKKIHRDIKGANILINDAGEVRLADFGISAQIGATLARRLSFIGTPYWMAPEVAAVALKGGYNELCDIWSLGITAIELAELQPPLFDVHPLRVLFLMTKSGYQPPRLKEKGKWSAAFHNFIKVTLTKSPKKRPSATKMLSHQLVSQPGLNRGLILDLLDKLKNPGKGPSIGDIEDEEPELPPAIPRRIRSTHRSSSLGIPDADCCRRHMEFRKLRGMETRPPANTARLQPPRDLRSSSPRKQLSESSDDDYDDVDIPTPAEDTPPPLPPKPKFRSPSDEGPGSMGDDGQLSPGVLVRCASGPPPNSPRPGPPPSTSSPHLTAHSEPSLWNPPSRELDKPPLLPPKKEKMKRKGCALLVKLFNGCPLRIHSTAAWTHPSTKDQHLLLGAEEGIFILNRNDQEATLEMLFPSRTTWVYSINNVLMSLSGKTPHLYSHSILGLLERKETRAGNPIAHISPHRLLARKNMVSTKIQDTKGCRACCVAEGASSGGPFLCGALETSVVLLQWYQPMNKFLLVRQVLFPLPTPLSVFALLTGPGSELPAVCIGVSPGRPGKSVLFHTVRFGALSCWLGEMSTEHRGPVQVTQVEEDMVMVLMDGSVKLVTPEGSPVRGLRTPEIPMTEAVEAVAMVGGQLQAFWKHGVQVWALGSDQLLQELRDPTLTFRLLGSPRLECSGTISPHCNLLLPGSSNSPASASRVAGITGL

Compound	IC50
O=C1NCc2c(-c3cnc4cc(F)ccn34)ccc(Nc3ccc(N4CCOC[C@@H](O)C4)cn3)c21 [I-339, (S)-4-(7-fluoroimidazo [1,2-a]pyridin-3-yl)-7-((5-(6-hydroxy-1,4-oxazepan-4-yl)pyridin-2-yl)amino)isoin-dolin-1-one]	< 100 nM
Cn1ccn2c(-c3ccc(Nc4ccc(N5CCC(O)CC5)cn4)c4c3CNC4=O)cnc2c1=O [I-168, 3-[7-[[5-(4-hydroxy-1-piperidyl)-2-pyridyl]amino]-1-oxo-isoindolin-4-yl]-7-methyl-imidazo[1,2-a]pyrazin-8-one]	< 100 nM
C[C@@H](O)[C@H]1CCCN(c2ccc(Nc3ccc(-c4cnc5cc(F)ccn45)c4c3C(=O)NC4)nc2)C1 (stereo in doubt) [I-364, 4-(7-fluoroimidazo [1,2-a]pyridin-3-yl)-7-((5-((R)-3-((S)-1-hydroxyethyl)piperidin-1-yl)pyridin-2-yl)amino)isoin-dolin-1-one]	< 100 nM
CN(C)CC1CN(c2ccc(Nc3ccc(-c4cnc5cc(F)ccn45)c4c3C(=O)NC4)nc2)CCO1 (stereo not drawn) [I-383, 7-((5-(2-((dimethylamino)-methyl)mor pholino)pyridin-2-yl)amino)-4-(7-fluoroimidazo [1,2-a]pyridin-3-yl)isoindolin-1-one]	< 100 nM
Cc1ccc2c(-c3ccc(Nc4ccc(N5CCO[C@H](C(C)(C)O)C5)cn4)c4c3CNC4=O)cnn2c1 [I-489, 7-[[5-[(2S)-2-(1-hydroxy-1-methylethyl)morpholin-4-yl]-2-pyripyl]amino]-4-(6-methylpyrazo-lo[1,5-a]pyridin-3-yl)isoindolin-1-one]	< 100 nM
CCN(CC)Cc1nc(Nc2ccc(-c3cnc4cc(F)ccn34)c3c2C(=O)NC3)ccc1[C@H]1CCOC1 [I-510, (R)-7-((6-((diethylamino)-methyl)-5-(tetrahydrofuran-3-yl)pyridin-2-yl)amino)-4-(7-fluoroimidazo [1,2-a]pyridin-3-yl)isoindolin-1-one]	< 100 nM
CCN(CC)Cc1nc(Nc2ccc(-c3cnc4cc(F)ccn34)c3c2C(=O)NC3)ccc1N1CCOCC1 [I-785, 7-((6-((diethylamino)-methyl)-5-morpholinopyr-idin-2-yl)amino)-4-(7-fluoroimidazo [1,2-a]pyridin-3-yl)isoindolin-1-one]	< 100 nM
COCC1(c2ccc(Nc3ccc(-c4cnc5cc(F)ccn45)c4c3C(=O)NC4)nc2CN(C)C)CCOCC1 [I-831]	< 100 nM
O=C1NCc2c(-c3cncc4nccn34)ncc(Nc3ccc(N4CCC(O)CC4)cn3)c21 [I-376, 7-((5-(4-hydroxypiperidin-1-yl)pyridin-2-yl)amino)-4-(imidazo[1,2-a]pyrazin-5-yl)-2,3-dihydro-1H-pyrrolo[3,4-c]pyridin-1-one]	100 to 1000 nM
Cc1ccn2c(-c3ccc(Nc4ccc(N5CCO[C@H](C(C)(C)O)C5)cn4)c4c3CNC4=O)cnc2c1F [I-463, 4-(8-fluoro-7-methyl-imidazol [1,2-a]pyridin-3-yl)-7-[[5-[(2S)-2-(1-hydroxy-1-methyl-ethyl)morpholin-4-yl]-2-pyridyl]amino]isoindolin-1-one]	< 100 nM
CN(C)CC1(O)CCN(c2ccc(Nc3ccc(-c4cnc5cc(F)ccn45)c4c3C(=O)NC4)nc2)CC1 [I-366, 7-((5-(4-((dimethylamino)-methyl)-4-hydroxypiperidin-1-yl)pyridin-2-yl)amino)-4-(7-fluoroimidazo [1,2-a]pyridin-3-yl)isoindolin-1-one]	< 100 nM
O=C1NCc2c(-c3cnc4cc(F)ccn34)ccc(Nc3ccc(S(=O)(=O)CC4CCC4)cn3)c21 [I-321, 7-((5-((cyclobutyl-methyl)sulfonyl)pyridin-2-yl)amino)-4-(7-fluoroimidazo [1,2-a]pyridin-3-yl)isoindolin-1-one]	< 100 nM
O=C1NCc2c(-c3cnc4cc(F)ccn34)ccc(Nc3ccc([C@H]4CCOC4)c(CN4CCC[C@H]4CO)n3)c21 [I-827, 4-(7-fluoroimidazo [1,2-a]pyridin-3-yl)-7-((6-(((S)-2-(hydroxymeth-yl)pyrrolidin-1-yl]methyl)-5-((R)-THF-3-yl)pyridin-2-yl)amino)isoin-dolin-1-one]	< 100 nM
CN(C)C[C@]1(O)CCCN(c2ccc(Nc3ccc(-c4cnc5cc(F)ccn45)c4c3C(=O)NC4)nc2)C1 [I-567, (R)-7-((5-(3-((dimethylamino)-methyl)-3-hydroxypiperidin-1-yl)pyridin-2-yl)amino)-4-(7-fluoroimidazo [1,2-a]pyridin-3-yl)isoindolin-1-one]	< 100 nM
CN(Cc1nc(Nc2ccc(-c3cnc4cc(F)ccn34)c3c2C(=O)NC3)ccc1C1CCOC1)CC(F)(F)F (stereo in doubt) [I-765, (R)-4-(7-fluoroimidazo [1,2-a]pyridin-3-yl)-7-((6-((methyl(2,2,2 trifluoroethyl)amino)methyl)-5-(tetrahydrofuran-3-yl)pyridin-2-yl)amino)isoin-dolin-1-one]	< 100 nM
CN(C)Cc1nc(Nc2ccc(-c3cnc4cc(F)ccn34)c3c2C(=O)NC3)ccc1N1CC[C@H](F)[C@@H](O)C1 [I-701, 7-((6-((dimethylamino)-methyl)-5-((3S.4S]-4-fluoro-3-hydroxypiperidin-1-yl)pyridin-2-yl)amino)-4-(7-fluoroimidazo [1,2-a]pyridin-3-yl)isoindolin-1-one]	< 100 nM
O=C1NCc2c(-c3cnc4c(F)cccn34)ccc(Nc3ccc(N4CCOCC4)cn3)c21 [I-156, 4-(8-fluoroimidazo [1,2-a]pyridin-3-yl)-7-[(5-morpholino-2-pyridyl)amino] isoindolin-1-one]	< 100 nM
O=C1NCc2c(-c3cnn4c3CCCC4)ncc(Nc3ccc(N4CCC(O)CC4)cn3)c21 [I-330, 7-((5-(4-hydroxypiperidin-1-yl)pyridin-2-yl)amino)-4-(4,5,6,7-tetrahydropyra-zolo[1,5-a]pyridin-3-yl)-2,3-dihydro-1H-pyrrolo[3,4-c]pyridin-1-one]	100 to 1000 nM
O=C1NCc2c(-c3cnc4cc(F)ccn34)ccc(Nc3ccc([C@H]4CCOC4)c(CN4CC[C@H](O)C4)n3)c21 [I-778, 4-(7-fluoroimidazo[1,2-a]pyridin-3-yl)-7-((6-(((S)-3-hydroxypyrrolidin-1-yl)methyl)-5-((R)-tetrahydrofuran-3-yl)pyridin-2-yl)amino)isoindolin-1-one]	< 100 nM
C[C@@H]1C[C@@H](O)CCN1c1ccc(Nc2ccc(-c3cnc4cnccn34)c3c2C(=O)NC3)nc1 [I-351, 7-((5-((2R,4S)-4-hydroxy-2-methylpiperidin-1-yl)pyridin-2-yl)amino)-4-(imidazo[1,2-a]pyrazin-3-yl)isoindolin-1-one]	< 100 nM
Cn1ccc2c(-c3ccc(Nc4ccc(N5CCC(O)CC5)cn4)c4c3CNC4=O)cnc-2n1 [I-426, 7-((5-(4-hydroxy-piperidin-1-yl)pyridin-2-yl)amino)-4-(2-methyl-2H-pyrrolo[2,3-c]pyridazin-5-yl)isoindolin-1-one]	< 100 nM
CN1CCc2cc(Nc3ccc(-c4ccnc5c4ccn5C)c4c3C(=O)NC4)nn2CC1=O [I-294, 6-methyl-2-((7-(1-methyl-1H-pyrrolo[2,3-b]pyridin-4-yl)-3-oxoisoindolin-4-yl)amino)-5.6-dihydro-4H-pyrazolo[1,5-d][l,4]diaze-pin-7(8H)-one]	< 100 nM
Cn1ccc2c(-c3ncc(Nc4ccc(N5CCC[C@@H](C(C)(C)O)C5)cn4)c4c3CNC4=O)ccnc21 [I-212, 7-[[5-[(3R)-3-(1-hydroxy-1-methyl-ethyl)-1-piperidyl]-2-pyridyl]amino]-4-(1-methylpyrrolo [2,3-b]pyridin-4-yl)-2,3-dihydropyrrolo [3,4-c]pyridin-1-one]	< 100 nM
CN(C)Cc1nc(Nc2ccc(-c3cnc4cnccn34)c3c2C(=O)NC3)ccc1C1CCOCC1 [I-850, 7-[[6-[(dimethylami-no)methyl]-5-tetrahydropyran-4-yl-2-pyridyl]amino]-4-imidazo[1,2-a]pyrazin-3-yl-isoindolin-1-one]	< 100 nM
Cc1cccn2c(-c3ncc(Nc4ccc(N5CCC[C@H](C(C)(C)O)C5)cn4)c4c3CNC4=O)cnc12 [I-241, 7-[[5-[(3S)-3-(1-hydroxy-1-methyl-ethyl)-1-piperidyl]-2-pyridyl]-amino]-4-(8-methylimidazo [1,2-a]pyridin-3-yl)-2,3-dihydropyrrolo [3,4-c]pyridin-1-one]	< 100 nM
CN(C)Cc1nc(Nc2ccc(-c3cnc4cc(F)ccn34)c3c2C(=O)NC3)ccc1OC1CCOCC1 [I-553, 7-[[6-[(dimethylamino)-methyl]-5-tetrahydropy-ran-4-yloxy-2-pyridyl]amino]-4-(7-fluoroimidazo [1,2-a]pyridin-3-yl)isoindolin-1-one]	< 100 nM
CC(C)NCc1nc(Nc2ccc(-c3cnc4cc(F)ccn34)c3c2C(=O)NC3)ccc1C1CCOCC1 [I-847, 4-(7-fluoroimidazo [1,2-a]pyridin-3-yl)-7-[[6-[(isopropylamino)-methyl]-5-tetrahydropyran-4-yl-2-pyridyl]amino] isoindolin-1-one Formic acid salt]	< 100 nM
CN(C)Cc1nc(Nc2cnc(-c3cccc4c3ccn4C)c3c2C(=O)NC3)ccc1[C@H]1CCOC1 [I-547, (R)-7-((6-((dimethylamino)-methyl)-5-(tetrahydrofuran-3-yl)pyridin-2-yl)amino)-4-(1-methyl-1H-indol-4-yl)-2,3-dihydro-1H-pyrrolo[3,4-c]pyridin-1-one]	< 100 nM
Cc1ccn2c(-c3ccc(Nc4ccc(C(C)(C)C(=O)NCCN(C)C)cn4)c4c3CNC4=O)cnc2c1F [I-456, N-[2-(dimethylami-no)ethyl]-2-[6-[[7-(8-fluoro-7-methyl-imidazo[1,2-a]pyridin-3-yl)-3-oxo-isoindolin-4-yl]amino]-3-pyridyl]-2-methyl-propanamide]	< 100 nM
CN(C)Cc1nc(Nc2ccc(-c3ccnc4c3ccn4C)c3c2C(=O)NC3)ccc1[C@H]1CCOC1 [I-546, (R)-7-((6-((dimethylamino)-methyl)-5-(tetrahydrofuran-3-yl)pyridin-2-yl)amino)-4-(1-methyl-1H-pyrrolo[2,3-b]pyridin-4-yl)isoindolin-1-one]	< 100 nM
